Source: the NIST ThermoML archive (doi:10.1021/acs.jced.5b00931)

CCCC[N+]1(C)CCCC1.O=S(=O)([O-])C(F)(F)F [1-butyl-1-methylpyrrolidinium trifluoromethanesulfonate]
101.33 kPa, Liquid
Conditions | mass density, Vibrating tube method [kg/m3] | viscosity, Falling or rolling sphere viscometry [mPa·s]
293.15 K | 1255.7 | 217
298.15 K | 1252 | 164
303.15 K | 1248.3 | 128
308.15 K | 1244.7 | 101
313.15 K | 1241 | 80.7
318.15 K | 1237.4 | 65.7
323.15 K | 1233.8 | 54.3
328.15 K | 1230.2 | 42.4
333.15 K | 1226.7 | 35.7
338.15 K | 1223.1 | 30.4
343.15 K | 1219.6 | 26.1
348.15 K | 1216.1 | 22.7
353.15 K | 1212.6 | 19.8
358.15 K | 1209 | 17.4
363.13 K | 1205.5 | –
363.15 K | – | 15.5

CCCC[n+]1cccc(C)c1.O=S(=O)([O-])C(F)(F)F [1-butyl-3-methylpyridinium trifluoromethanesulfonate]
101.33 kPa, Liquid
Conditions | mass density, Vibrating tube method [kg/m3] | viscosity, Falling or rolling sphere viscometry [mPa·s]
293.15 K | 1279 | 165
298.15 K | 1275.2 | 126
303.15 K | 1271.4 | 95.7
308.15 K | 1267.6 | 75.9
313.15 K | 1263.8 | 60.2
318.15 K | 1260 | 45.8
323.15 K | 1256.2 | 37.6
328.15 K | 1252.5 | 31.4
333.15 K | 1248.7 | 26.3
338.15 K | 1245 | 22.6
343.15 K | 1241.2 | 19.4
348.15 K | 1237.5 | 16.9
353.15 K | 1233.8 | 14.9
358.15 K | 1230.1 | 13.1
363.13 K | 1226.5 | –
363.15 K | – | 11.6

CCCC[N+]1(C)CCCCC1.O=S(=O)([O-])C(F)(F)F [1-butyl-1-methylpiperidinium trifluoromethanesulfonate]
101.33 kPa, Liquid
Conditions | mass density, Vibrating tube method [kg/m3] | viscosity, Falling or rolling sphere viscometry [mPa·s]
333.15 K | 1216.8 | 107
338.15 K | 1213.3 | 84.6
343.15 K | 1209.8 | 67.8
348.15 K | 1206.4 | 55.2
353.15 K | 1202.9 | 45.6
358.15 K | 1199.5 | 38
363.13 K | 1196.1 | –
363.15 K | – | 32
